Source: EP3892734B1, “SCREENING METHODS AND THERAPEUTIC APPLICATIONS BASED ON BACTERIAL MOTILITY INHIBITION” (Ludwig-Maximilians-Universität München, priority 2020, dated 2021)
Entries after “also recorded” stand apart in the source; their conditions may differ.

Assays:
[1] = plasma cytokine analysis by Bioplex multiplex bead assay in treated mice; assay type: in vivo, C57B/L6 mice; conditions: chronic mouse infection model, BioRad Bioplex assay
Description: Before the infection and at the end of the treatment experiment, mouse blood was taken from the eye vein of a few selected mice (approximately 30 to 100 µl per mouse). The blood plasma was subsequently separated from cells using separation centrifugation devices (Sarstedt Microvette lithium-heparin). Plasma was diluted in Biorad Bioplex assay buffer to one fourth of the initial concentration and measured in the 23-Plex BioPlex bead-based multiplex cytokine assay (Biorad #m60009rdpd) according to the manufacturer's instructions and using the provided standards. Each sample was measured in a total volume of 50 µl in duplicate.

flagellin protein FlaA = assay: Western immunoblot of flagellin FlaA in bacterial fractions; assay type: cell-based, H. pylori; conditions: Western blot, soluble and surface-associated fractions, time point T2
Source text: • Fig. 1: Developing and establishing a screening system by primary luciferase-based reporter screen for flagellar expression and biosynthesis of H. pylori in multi-well plates and identification of active small compounds by the screen. A) Results of luciferase flagellar reporter screen for one exemplary library of more than 1200 compounds; each dot represents one compound result. […] Inhibitory as well as enhancing activities of the compounds were observed. Yellow markings depict the borders of the Z-factor, corresponding to the three-fold standard error of the positive (non-inhibited) controls. […] Tracking assays with H. pylori were performed in liquid medium (RPMI1640 with 3% horse serum) and movies recorded in a CELL-R live imaging system (Olympus, see methods). A) Stops/reversals during the swimming runs of the bacteria as a measure of intact taxis and directional motility and curvilinear velocity (CLV) were quantitated as described in (Behrens et al., 2016). […] Two different time points of an H. pylori growth curve in liquid BHI medium (3% yeast extract, 5% horse serum), T1 (early exponential) T2 (late exponential growth) were monitored for differences in protein expression in the presence (+) or absence of Active 2 compound. […] Highquality sequences obtained from cagL positive PCRs in the absence of positive culture are boxed; respective Sanger sequence reads are shown in B). […]

H. pylori = assay: therapeutic treatment in chronic H. pylori mouse infection model (cfu counts, cagL PCR); assay type: in vivo, C57B/L6 mice; conditions: for reduction of colony-forming units (cfus) / bacterial loads in stomach: metronidazole 14.3 mg/kg/day, intragastric gavage
Description: 6-8 weeks old specific pathogen-free C57B/L6 mice were obtained from Charles River Laboratories. They were acclimatized to the new surroundings for one week before starting the assays. For the whole duration of the experiment, mice had access to sterile chow and sterile water ad libitum. In week one of the experiment, H. pylori was administered at 3×10^8 bacteria per mouse per inoculum (100 µl) on two days with one day of break in between. The proof-of-principle treatment was started two weeks after the end of the inoculation week, assuming a stable infection at this time point. The mice were treated in separate groups (8-14 animals per group), as outlined in the results, with compound(s), antibiotic (metronidazole at 14.3 mg/kg/day), a combination of both antibiotic and compound (for concentrations, see Results), or mock-treated once daily over seven consecutive days by intra-gastric gavage. After the treatment week, the mice were kept for another two weeks under normal housing and feeding conditions with sterilized chow and sterile water ad libitum. At the end of the assay period (week seven), the mice were necropsied by cervical dislocation under CO2 anesthesia. The animal experiments were authorized under German federal law by the LAVES (Lower Saxony Government Authority).
Then, BL2 was further tested for therapeutic efficacy in a mouse model of chronic H. pylori infection (Fig. 5). Six groups of mice (10 mice per group in each of the four infected and/or treated groups, and six mice in both of the control groups) were established in this mouse treatment trial. For the treatment groups, mice were infected in week one (using ca. 3×10^8 bacteria per animal; Methods), and the chronic infection was manifested for two more weeks. The once-daily treatment (intragastric gavage) started in week four on seven consecutive days. For the treatment groups, three H. pylori-infected groups were evaluated in parallel. One dose of treatment was given daily.
Group one was treated with metronidazole (14.3 mg/kg/day) only, an established anti-H. pylori antibiotic. The antibiotic concentration corresponds to concentrations routinely used in human treatment. Group two was treated with metronidazole (dosed at 14.3 mg/kg/day) and BL2 (10 mg/kg/day) in combination, and group three received BL2 (10 mg/kg/day) only. In addition, one infected and mock-treated group was kept as positive control, and two mock-infected groups were set aside, one for administering BL2 only (10 mg/kg/day; microbiota compound control) and one which was mock-infected and mock-treated (microbiota null control).
The read-out of successful treatment was the reduction of colony-forming units (cfus) of bacteria in infected and treated mice, over infected, non-treated, mice, at the end of the experiment. […] All mice in the infected positive control group were colonized (both cfu counts and PCR-positive), although the cfu counts in three positive animals were rather low.

[2] = BL2 10 mg/kg/day, once daily, 7 days, versus infected control

## Cn1c(CSC(=N)N)c(Cl)c(=O)n1-c1ccccc1 [Active 2]
[1]
  plasma cytokine loads: No significant change of plasma cytokine loads
Flagellin protein FlaA
  amount of major flagellin FlaA: significant reduction of main flagellin FlaA at time point T2
Flagellin protein FlaA; listed as Active 2/BL2
  amount of major flagellin FlaA: reduced the amounts of the major flagellin, FlaA
H. pylori; BL2 10 mg/kg/day, once daily, 7 days, versus infected control, listed as BL2
  reduction of colony-forming units (cfus) / bacterial loads in stomach: therapeutically effective; also recorded: significant activity in vivo; also recorded: significant therapeutic activity; also recorded: significantly effective in reducing bacterial loads
H. pylori; BL2 10 mg/kg/day, once daily, 7 days, versus infected control, listed as active 2/BL2
  reduction of colony-forming units (cfus) / bacterial loads in stomach: therapeutically active
H. pylori; [2]
  cfu counts in the antrum: statistically significant reduction of cfu counts in the antrum
  cfus in the corpus: trend towards reduced cfus
H. pylori; two weeks post-treatment, listed as BL2
  gene-specific (cagL) PCR signal in stomach homogenates: strong reduction of gene-specific PCR signal; also recorded: below detection levels
